Test results reported in publication PMC3666759, “ATP Dependent Rotational Motion of Group II Chaperonin Observed by X-ray Single Molecule Tracking” (PLoS ONE, 2013).

Molecular target: T1, TKS1-Cpn (group II chaperonin from Thermococcus strain KS-1) (Thermococcus sp. JCM 11816, UniProt P61112, D263C/C366S)
T1 construct: gene thsA; full-length recombinant chaperonin, purified to homogeneity, double-ring homo-oligomer
Test: diffracted X-ray tracking (DXT), single molecule
Assay type: binding
Conditions: 2 mM ATP; MOPS pH 7.0, 100 mM KCl, 5 mM MgCl2, about 60 °C; immobilised on gold, gold nanocrystal label

T1 sequence (P61112 whole entry D263C/C366S): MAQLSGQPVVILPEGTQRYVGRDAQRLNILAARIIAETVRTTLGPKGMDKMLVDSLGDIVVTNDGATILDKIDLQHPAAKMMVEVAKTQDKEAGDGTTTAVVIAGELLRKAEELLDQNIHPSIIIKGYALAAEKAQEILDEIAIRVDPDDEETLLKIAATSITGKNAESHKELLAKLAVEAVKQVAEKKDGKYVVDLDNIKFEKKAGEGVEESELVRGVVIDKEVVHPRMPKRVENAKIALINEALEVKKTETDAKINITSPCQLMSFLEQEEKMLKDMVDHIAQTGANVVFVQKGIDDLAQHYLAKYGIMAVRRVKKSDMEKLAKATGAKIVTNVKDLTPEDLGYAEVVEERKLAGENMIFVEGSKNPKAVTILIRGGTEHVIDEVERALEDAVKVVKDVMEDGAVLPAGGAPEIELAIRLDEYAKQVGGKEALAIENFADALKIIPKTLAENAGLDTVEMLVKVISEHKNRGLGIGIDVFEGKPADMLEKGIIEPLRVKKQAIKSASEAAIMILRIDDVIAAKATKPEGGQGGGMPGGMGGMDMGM

## Nc1ncnc2c1ncn2[C@@H]1O[C@H](COP(=O)(O)OP(=O)(O)OP(=O)(O)O)[C@@H](O)[C@H]1O [ATP]
  diffracted X-ray tracking (DXT), single molecule: Angular displacement in the χ direction was clearly activated by the addition of ATP.
